Measurements from patent US20090281110A1, “Method of Treatment” (priority 2006, published 2009).

Key:
[1] = system: rat estrogen opposition model; assay: Rat Model of Estrogen Opposition: Uterotrophic Model Assay; format: in vivo; settings: 30 mg/kg/day
Procedure: A rat estrogen opposition model (Lundeen, S. G. et al., (2001) Rat Uterine Complement C3 Expression as a Model for Progesterone Receptor Modulators: Characterization of the New Progestin Trimegestone. J. Steroid Biochem. & Mol. biol. 78, 137-143, incorporated herein to the extent required to perform the present assay) was used to determine the efficacy of Example 2f at 30 mg/kg/day. This was a 48 hour rodent model involving a pre-treatment of compound followed by two days of combined estrogen (0.08 mg/kg) and compound treatment. At termination, uteri were removed from the rats weighed and sectioned for downstream biochemical analysis. Estrogen in this model was pro-inflammatory, inducing edema and infiltration of neutrophils into the endometrium causing a 4 to 5 fold increase in uterine weight. A significant effect of compound treatment on uterine weight was considered approximately a 25% decrease.

[2] = biological target: T1, recombinant human IL-8 type α and β receptors (Homo sapiens, UniProt P25025); assay: Receptor Binding Assay ([125I] IL-8 / GRO-α displacement, CHO membranes); settings: receptor subtype (IL-8Rα or IL-8Rβ) not given
T1 sequence (P25025 1-360): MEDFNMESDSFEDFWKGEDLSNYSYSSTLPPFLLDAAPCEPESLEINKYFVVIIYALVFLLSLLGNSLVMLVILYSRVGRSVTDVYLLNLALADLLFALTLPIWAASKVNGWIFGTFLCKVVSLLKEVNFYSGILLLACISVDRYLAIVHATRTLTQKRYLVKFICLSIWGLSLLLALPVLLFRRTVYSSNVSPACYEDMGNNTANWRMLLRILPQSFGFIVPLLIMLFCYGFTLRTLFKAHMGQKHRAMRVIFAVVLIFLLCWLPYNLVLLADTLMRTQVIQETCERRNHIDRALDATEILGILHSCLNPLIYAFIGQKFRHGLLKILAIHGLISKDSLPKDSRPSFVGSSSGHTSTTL

Structure (SMILES)	gene expression level of MMP-9 reduced compared to vehicle control and estrogen treated rats ([1]; rat uterus)	gene expression of C3 reduced compared to estrogen only treatment ([1]; rat uterus)	gene expression of cfos reduced compared to estrogen only treatment ([1]; rat uterus)	reduced estrogen-induced uterine wet weight ([1]; rat, 48 hour model, estrogen 0.08 mg/kg)	IC50 [2]
CN1CCN(S(=O)(=O)c2c(Cl)ccc(NC(=O)Nc3cccc(F)c3Cl)c2O)CC1.Cc1ccc(S(=O)(=O)O)cc1 [Example 2f, N-[4-chloro-2-hydroxy-3-(4-methyl-piperazine-1-sulfonyl)-phenyl]-N′-(2-chloro-3-fluorophenyl)-urea p-toluenesulfonate]	50%	84%	50%	66%+/−5%	
Cl.O=C(Nc1ccc(Cl)c(S(=O)(=O)N2CCNCC2)c1O)Nc1cccc(F)c1Cl [Example 1, N-[4-chloro-2-hydroxy-3-(piperazine-1-sulfonyl)phenyl]-N′-(2-chloro-3-fluorophenyl)urea hydrochloride]					about 13 nM
